Experiment [1] relates to tumour cells (A20 5E6 cells). Nature of the experiment: Inhibitory effect on tumour cell proliferation (CCK8). The class given is cell-based. The conditions noted are these: CCK8 absorbance, read-out: Inhibitory effect of the compound on cell proliferation IC50. How it is done: This experiment was to determine the effect of the compound on cell proliferation.
To determine the inhibitory effect of the compound on the proliferation of tumour cells, tumour cells (A20 5E6 cells) were cultured to a certain amount and seeded into 96-well plates. […] The absorbance value was measured after the addition of CCK8 and 2 h incubation to determine the inhibitory effect of the compound on cell proliferation. The IC50 value of the compound was obtained by data fitted with Graphpad.

The target of experiment [2] is BTK kinase (Homo sapiens, UniProt Q06187). The experiment can be described thus: BTK kinase inhibitory activity, mobility shift method. The conditions noted are these: compound co-incubated with the enzyme for 30 minutes. Type of experiment: biochemical. On the procedure:
The BTK kinase inhibitory activity of the compound was determined using a mobility shift method with the reaction system (kinase solution, ATP, kinase substrate2). The compound was co-incubated with the enzyme for 30 minutes, and then the conversion rate was read using the Caliper EZ reader. The compound inhibition rate was determined using the calculation formula and the data was fitted using Graphpad to derive the IC50 value for the compounds of this application.

Sequence of BTK kinase (Q06187 whole entry): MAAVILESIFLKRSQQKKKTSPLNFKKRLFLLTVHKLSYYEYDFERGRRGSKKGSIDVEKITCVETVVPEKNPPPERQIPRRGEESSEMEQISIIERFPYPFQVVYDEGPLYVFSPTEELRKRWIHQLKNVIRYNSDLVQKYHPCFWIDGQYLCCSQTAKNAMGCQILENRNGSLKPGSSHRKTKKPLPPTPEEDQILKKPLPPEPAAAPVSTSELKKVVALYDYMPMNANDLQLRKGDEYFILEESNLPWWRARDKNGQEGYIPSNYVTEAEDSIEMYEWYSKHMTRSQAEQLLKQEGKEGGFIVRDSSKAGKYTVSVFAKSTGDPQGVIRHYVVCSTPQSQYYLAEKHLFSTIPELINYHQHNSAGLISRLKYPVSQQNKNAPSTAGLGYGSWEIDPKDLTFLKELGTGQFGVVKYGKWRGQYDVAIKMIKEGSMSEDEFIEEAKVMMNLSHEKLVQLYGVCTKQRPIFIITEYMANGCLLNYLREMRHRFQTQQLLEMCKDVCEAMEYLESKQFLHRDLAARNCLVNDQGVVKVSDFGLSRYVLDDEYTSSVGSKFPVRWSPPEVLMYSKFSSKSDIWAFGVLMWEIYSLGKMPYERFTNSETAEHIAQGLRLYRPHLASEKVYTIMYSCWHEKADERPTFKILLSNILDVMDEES

On to `CN1CC2(CCN(c3ccc(Nc4cc(-c5ccnc(N6CCn7c8c(c(F)c7C6=O)CC(C)(C)C8)c5CO)cn(C)c4=O)nc3)CC2)C1` [Example H12, 9-fluoro-2-(3′-(hydroxymethyl)-1-methyl-5-((5-(2-methyl-2,7-diazaspiro[3.5]nonan-7-yl)pyridin-2-yl)amino)-6-oxo-1,6-dihydro-[3,4′-bipyridin]-2′-yl)-7,7-dimethyl-3,4,7,8-tetrahydro-2H-cyclopenta[4,5]pyrrolo[1,2-a]pyrazin-1(6H)-one], for which the IC50 in experiment [1] is 13 nM; in experiment [2] it was 0.49 nM.

Take `Cn1cc(-c2ccnc(N3CCn4c5c(c(F)c4C3=O)CC(C)(C)C5)c2CO)cc(Nc2ccc(N3CCN(C4COC4)CC3)cc2)c1=O` [Example H15, 9-fluoro-2-(3′-(hydroxymethyl)-1-methyl-5-((4-(4-(oxetan-3-yl)piperazin-1-yl)phenyl)amino)-6-oxo-1,6-dihydro-[3,4′-bipyridin]-2′-yl)-7,7-dimethyl-3,4,7,8-tetrahydro-2H-cyclopenta[4,5]pyrrolo[1,2-a]pyrazin-1(6H)-one]: the IC50 in experiment [1] worked out at 23 nM; in experiment [2], 0.68 nM.

Consider `Cn1cc(-c2ccnc(N3CCn4c5c(c(F)c4C3=O)CC(C)(C)C5)c2CO)cc(Nc2ccc(N3CCN(C4COC4)CC3)nc2)c1=O` [Example H16, 9-fluoro-2-(3′-(hydroxymethyl)-1-methyl-5-((6-(4-(oxetan-3-yl)piperazin-1-yl)pyridin-3-yl)amino)-6-oxo-1,6-dihydro-[3,4′-bipyridin]-2′-yl)-7,7-dimethyl-3,4,7,8-tetrahydro-2H-cyclopenta[4,5]pyrrolo[1,2-a]pyrazin-1(6H)-one], for which the values for the IC50 in experiment [1] and in experiment [2] were 47 nM and 0.17 nM, respectively.

Regarding `CC1(C)Cc2cc3n(c2C1)CCN(c1nccc(-c2cc(Nc4ccc(N5CCN(C6COC6)CC5)cn4)c4occc4n2)c1CO)C3=O` [Example H09, 2-(3-(hydroxymethyl)-4-(7-((5-(4-(oxetan-3-yl)piperazin-1-yl)pyridin-2-yl)amino)furo[3,2-b]pyridin-5-yl)pyridin-2-yl)-7,7-dimethyl-3,4,7,8-tetrahydro-2H-cyclopenta[4,5]pyrrolo[1,2-a]pyrazin-1(6H)-one], the IC50 in experiment [1] was found to be 31 nM; in experiment [2], 0.71 nM.

As to `C[C@H]1CN(C2COC2)CCN1c1ccc(Nc2cc(-c3c(C#N)ccc(N4CCn5c(cc6c5CC(C)(C)C6)C4=O)c3CO)cn(C)c2=O)nc1` [Example H07, (S)-4-(7,7-dimethyl-1-oxo-1,3,4,6,7,8-hexahydro-2H-cyclopenta [4,5]pyrrolo[1,2-a]pyrazin-2-yl)-3-(hydroxymethyl)-2-(1-methyl-5-((5-(2-methyl-4-(oxetan-3-yl)piperazin-1-yl)pyridin-2-yl)amino)-6-oxo-1,6-dihydropyridin-3-yl) benzonitrile], the IC50 in experiment [1] was determined as 40 nM; in experiment [2], 0.38 nM.

Take `Cn1cc(-c2ccnc(N3CCn4c5c(c(F)c4C3=O)CC(C)(C)C5)c2CO)cc(Nc2ccc(N3CCC4(CC3)COC4)cn2)c1=O` [Example H11, 2-(5-((5-(2-oxa-7-azaspiro[3.5]nonan-7-yl)pyridin-2-yl)amino)-3′-(hydroxymethyl)-1-methyl-6-oxo-1,6-dihydro-[3,4′-bipyridin]-2′-yl)-9-fluoro-7,7-dimethyl-3,4,7,8-tetrahydro-2H-cyclopenta[4,5]pyrrolo[1,2-a]pyrazin-1(6H)-one]: the IC50 in experiment [1] came to 13 nM; in experiment [2], 0.26 nM.

In the case of `Cn1cc(-c2ccnc(N3CCn4c5c(c(F)c4C3=O)CC(C)(C)C5)c2CO)cc(Nc2ccc(N3CCC4(CC3)CC(O)C4)cn2)c1=O` [Example H13, 9-fluoro-2-(5-((5-(2-hydroxy-7-azaspiro[3.5]nonan-7-yl)pyridin-2-yl)amino)-3′-(hydroxymethyl)-1-methyl-6-oxo-1,6-dihydro-[3,4′-bipyridin]-2′-yl)-7,7-dimethyl-3,4,7,8-tetrahydro-2H-cyclopenta[4,5]pyrrolo[1,2-a]pyrazin-1(6H)-one], the IC50 in experiment [1] is 19 nM; in experiment [2] it was 0.18 nM.

As to `C[C@H]1CN(C2COC2)CCN1c1ccc(Nc2cc(-c3ccnc(N4CCn5c6c(c(Cl)c5C4=O)CC(C)(C)C6)c3CO)cn(C)c2=O)nc1` [Example H02, (S)-9-chloro-2-(3′-(hydroxymethyl)-1-methyl-5-((5-(2-methyl-4-(oxetan-3-yl)piperazin-1-yl)pyridin-2-yl)amino)-6-oxo-1,6-dihydro-[3,4′-bipyridin]-2′-yl)-7,7-dimethyl-3,4,7,8-tetrahydro-2H-cyclopenta[4,5]pyrrolo[1,2-a]pyrazin-1(6H)-one], the IC50 in experiment [1] stood at 23 nM; in experiment [2] it was 0.59 nM.

For the molecule `CN1CCN(c2ccc(Nc3cc(-c4ccnc(N5CCn6c7c(c(F)c6C5=O)CC(C)(C)C7)c4CO)cn(C)c3=O)nc2)CC1` [Example H14, 9-fluoro-2-(3′-(hydroxymethyl)-1-methyl-5-((5-(4-methylpiperazin-1-yl)pyridin-2-yl)amino)-6-oxo-1,6-dihydro-[3,4′-bipyridin]-2′-yl)-7,7-dimethyl-3,4,7,8-tetrahydro-2H-cyclopenta[4,5]pyrrolo[1,2-a]pyrazin-1(6H)-one], the IC50 in experiment [1] came to 47 nM; in experiment [2], 0.27 nM.

Consider `C[C@H]1CN(C2COC2)CCN1c1ccc(Nc2cc(-c3cc(C#N)cc(N4CCn5c(cc6c5CC(C)(C)C6)C4=O)c3CO)cn(C)c2=O)nc1` [Example H05, (S)-3-(7,7-dimethyl-1-oxo-1,3,4,6,7,8-hexahydro-2H-cyclopenta [4,5]pyrrolo[1,2-a]pyrazin-2-yl)-4-(hydroxymethyl)-5-(1-methyl-5-((5-(2-methyl-4-(oxetan-3-yl)piperazin-1-yl)pyridin-2-yl)amino)-6-oxo-1,6-dihydropyridin-3-yl) benzonitrile], for which the values for the IC50 in experiment [1] and in experiment [2] were 23 nM and 0.69 nM, respectively.

On to `CC(C)n1cc(-c2ccnc(N3CCn4c(cc5c4CC(C)(C)C5)C3=O)c2CO)cc(Nc2ccc(N3CCN(C4COC4)C[C@@H]3C)cn2)c1=O` [Example H04, (S)-2-(3′-(hydroxymethyl)-1-isopropyl-5-((5-(2-methyl-4-(oxetan-3-yl)piperazin-1-yl)pyridin-2-yl)amino)-6-oxo-1,6-dihydro-[3,4′-bipyridin]-2′-yl)-7,7-dimethyl-3,4,7,8-tetrahydro-2H-cyclopenta[4,5]pyrrolo[1,2-a]pyrazin-1(6H)-one], for which the results for the IC50 in experiment [1] and in experiment [2] were 26 nM and 0.26 nM, respectively.

These data come from US12606566B2, “Substituted cyclopenta[4,5]pyrrolo[1,2-a]pyrazines as bruton's tyrosine kinase inhibitors” (Shanghai Synergy Pharmaceutical Sciences Co., Ltd., priority 2020, dated 2026).
